Target: T1, aromatase (Homo sapiens, UniProt P11511)
T1 construct: 700 μl of aromatase preparation, usually 300-800 μg of microsomal protein per ml of assay buffer; from tissue; host or cells: microsomes
T1 sequence (P11511 1-503): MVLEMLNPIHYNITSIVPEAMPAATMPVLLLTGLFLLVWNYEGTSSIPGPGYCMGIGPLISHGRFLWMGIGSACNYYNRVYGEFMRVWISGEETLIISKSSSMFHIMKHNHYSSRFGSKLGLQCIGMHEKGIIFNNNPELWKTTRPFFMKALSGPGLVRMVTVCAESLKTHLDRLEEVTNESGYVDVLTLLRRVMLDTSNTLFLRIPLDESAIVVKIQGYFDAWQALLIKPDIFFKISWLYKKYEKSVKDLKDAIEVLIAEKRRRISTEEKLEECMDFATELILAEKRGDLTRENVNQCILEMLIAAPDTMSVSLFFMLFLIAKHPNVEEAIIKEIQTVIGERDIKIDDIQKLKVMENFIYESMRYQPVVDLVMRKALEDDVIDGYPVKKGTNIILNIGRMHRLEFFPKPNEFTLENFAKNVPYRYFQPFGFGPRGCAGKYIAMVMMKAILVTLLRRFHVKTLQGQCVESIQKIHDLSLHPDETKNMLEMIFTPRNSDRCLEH
Assay: time-dependent aromatase inhibition assay (preincubation, Kitz-Wilson analysis)
Assay type: biochemical
Settings: Kitz-Wilson plots
Procedure: In this assay, the inhibitor is preincubated with enzyme prior to assaying for activity in the presence of high substrate levels. A time-related decrease in enzyme activity can be indicative of a preferred mode of inhibition.
In the time-dependent assay, an amount of the enzyme inhibitor in 100 μl of the assay buffer described above which will provide assay concentrations which are usually between 1 nM and 10 μm are added to 35 ml centrifuge tubes containing 600 μl of the NADPH generating system. The preincubation is started by the addition of 700 μl of aromatase preparation, usually 300-800 μg of microsomal protein per ml of assay buffer. These preparations are mixed using a vortex mixer and incubated for 0, 5, 10 or 20 minutes at 25° C. […] The amount of radioactivity in the aqueous fraction is determined by scintillation procedures. The enzymatic activity for each concentration of inhibitor at each time period of preincubation is calculated as a percent of the "0" minute vehicle control arbitrarily set at 100%. Therefore, the present enzyme inhibition is expressed as a percentage: (100 percent minus percent enzyme activity with inhibitor present).
Enzyme kinetic analysis utilized Kitz-Wilson plots for time-dependent assays. […] The pseudo first-order rate constant for enzyme inactivation (kcat) and the half-time of inactivation (.tau.50) of infinite inhibitor concentrations were determined. […]

C[C@]12CC[C@H]3[C@@H](CCC4=CC(=O)[C@H]5CNC[C@]43C5)[C@@H]1CCC2=O [2β,19-(methyleneamino)androst-4-ene-3,17-dione]
.tau.50 (half-time of inactivation) (at infinite inhibitor concentrations): 2.66 min
KI (inactivation) (inhibitor concentration giving half-maximal rate of enzyme inactivation, microsomal aromatase preparation, preincubation 0-20 min at 25° C., read-out: Ki (apparent Ki of inactivation)): 259 nM
